test system: HIV-1 NL4.3 strain; assay: C8166 HIV-1 Luciferase Assay (EC50); assay type: cell-based; settings: Human immunodeficiency virus 1, C8166, 72 h, read-out: Antiviral potency EC50
Text: C8166 HIV-1 Luciferase Assay (EC50)
C8166 cells are derived from a human T-lymphotrophic virus type 1 immortalized but nonexpressing line of cord blood lymphocytes (obtained from J. Sullivan and originally produced in the laboratory of R. Gallo, Virology 1983; 129: 51-64) and are highly permissive to HIV-1 infection. The pGL3 Basic LTR/TAR plasmid is made by introducing the HIV-1 HxB2 LTR sequence from nucleotide −138 to +80 (Sca1-HindIII) upstream of the luciferase gene in the pGL3 Basic Vector (a promoterless luciferase expression vector from Promega catalogue # E1751) with the gene for blasticidine resistance cloned in. The reporter cells are made by electroporating C8166 cells with pGL3 Basic LTR/TAR and selecting positive clones with blasticidine. Clone C8166-LTRIuc #A8-F5-G7 is selected by 3 consecutive rounds of limiting dilution under blasticidine selection. Cultures are maintained in complete media (consisting of: Roswell Park Memorial Institute medium (RPMI) 1640+10% FBS+10^−5 M β-mercaptoethanol+10 μg/ml gentamycin) with 5 μg/ml blasticidine, however, blasticidine selection is removed from the cells before performing the viral replication assay.
Luciferase Assay Protocol
Serial dilutions of HIV-1 inhibitor compounds are prepared in complete media from 10 mM DMSO stock solutions. Eleven serial dilutions of 2.5× are made at 8× desired final concentration in a 1 mL deep well titer plate (96 wells). The 12th well contains complete media with no inhibitor and serves as the positive control. All samples contain the same concentration of DMSO (≦0.1% DMSO). A 25 μL aliquot of inhibitor is added, to triplicate wells, of a 96 well tissue culture treated clear view black microtiter plate (Corning Costar catalogue # 3904). The total volume per well is 200 μL of media containing cells and inhibitor. The last row is reserved for uninfected C8166 LTRluc cells to serve as the background blank control and the first row is media alone.
C8166 LTRluc cells are counted and placed in a minimal volume of complete RPMI 1640 in a tissue culture flask (ex. 30×10^6 cells in 10 mL media/25 cm^2 flask). Cells are infected with HIV-1 or virus with variant integrase generated as described below at a […] (moi) of 0.005. Cells are incubated for 1.5 hours at 37° C. on a rotating rack in a 5% CO2 incubator and re-suspended in complete RPMI to give a final concentration of 25,000-cells/175 μL. 175 μL of cell mix is added to wells of a 96 well microtiter plate containing 25 μL 8× inhibitors. 25,000 uninfected C8166-LTRluc cells/well in 200 μL complete RPMI are added to the last row for background control. Cells are incubated at 37° C. in 5% CO2 incubator for 3 days.
50 μL Steady Glo (luciferase substrate T1/2=5 hours Promega catalogue # E2520) is added to each well of the 96 well plate. The relative light units (RLU) of luciferase is determined using the LUMIstar Galaxy luminometer (BMG LabTechnologies). Plates are read from the bottom for 2 seconds per well with a gain of 240.
The level of inhibition (% inhibition) of each well containing inhibitor is calculated as follows: […]
The calculated % inhibition values are used to determine EC50, slope factor (n) and maximum inhibition (Imax) by the non-linear regression routine NLIN procedure of SAS using the following equation: […]

`Cc1nc(-c2cccc(Br)c2)c(C)c(-c2ccc3c(c2)CCCO3)c1[C@H](OC(C)(C)C)C(=O)O` [compound 1005] and `Cc1nc(-c2cccc(-c3cccnc3)c2)c(C)c(-c2ccc3c(c2)CCCO3)c1[C@H](OC(C)(C)C)C(=O)O` [compound 1009] are within 1.5-fold of each other in EC50: 19 nM for the first, 20 nM for the second.

First: CCCn1cc(-c2cccc(-c3nc(C)c([C@H](OC(C)(C)C)C(=O)O)c(-c4ccc5c(c4)CCCO5)c3C)c2)cn1 [compound 1011]
Second: Cc1nc(-c2cccc(-c3cncnc3)c2)c(C)c(-c2ccc3c(c2)CCCO3)c1[C@H](OC(C)(C)C)C(=O)O [compound 1017]
The EC50 of the first is 2.8-fold higher: 59 nM for the first, 21 nM for the second.

Compared with `Cc1n[nH]c(C)c1-c1cccc(-c2nc(C)c([C@H](OC(C)(C)C)C(=O)O)c(-c3ccc4c(c3)CCCO4)c2C)c1` [compound 1018], `Cc1nc(-c2cccc(-c3ccnnc3)c2)c(C)c(-c2ccc3c(c2)CCCO3)c1[C@H](OC(C)(C)C)C(=O)O` [compound 1020] is 3.7-fold lower in EC50: 180 nM for the first, 49 nM for the second. The second is the more potent here.

`Cc1nc(-c2ccc(-c3cncnc3)cc2)c(C)c(-c2ccc3c(c2C)CCCO3)c1[C@H](OC(C)(C)C)C(=O)O` [compound 1102] and `Cc1ccc(-c2nc(C)c([C@H](OC(C)(C)C)C(=O)O)c(-c3ccc4c5c(ccnc35)CCO4)c2C)cc1C` [compound 1116] are within 1.5-fold of each other in EC50: 17 nM for the first, 13 nM for the second.

Compared with `Cc1ccc(-c2nc(C)c([C@H](OC(C)(C)C)C(=O)O)c(-c3ccc(Cl)cc3)c2C)cc1C` [compound 1111], `Cc1nc(-c2ccc3scnc3c2)c(C)c(-c2ccc(Cl)cc2)c1[C@H](OC(C)(C)C)C(=O)O` [compound 1141] is 1.7-fold higher in EC50: 15 nM for the first, 26 nM for the second. The first is the more potent here.

Going from `Cc1ccc(-c2nc(C)c([C@H](OC(C)(C)C)C(=O)O)c(-c3ccc4c(c3C)NCCO4)c2C)cc1C` [compound 1113] to `Cc1nc(NC(=O)C(C)(C)C)c(C)c(-c2ccc3c(c2Cl)NCCO3)c1[C@H](OC(C)(C)C)C(=O)O` [compound 1242], the EC50 rises from 7.7 nM to 220 nM (29-fold). The first is the more potent here.

Going from `Cc1nc(-c2cccc(-c3ccnn3C)c2)c(C)c(-c2ccc(Cl)cc2)c1[C@H](OC(C)(C)C)C(=O)O` [compound 1124] to `Cc1nc(-c2nc3ccc(Cl)cc3n2C)c(C)c(-c2ccc(Cl)cc2)c1[C@H](OC(C)(C)C)C(=O)O` [compound 1437], the EC50 falls from 81 nM to 0.75 nM (110-fold).

Going from `Cc1nc(C(=O)N[C@H]2CC[C@H](C)CC2)c(C)c(-c2ccc3c(c2)CCCO3)c1[C@H](OC(C)(C)C)C(=O)O` [compound 1127] to `Cc1nc(C(=O)N[C@H]2CC[C@H](C)CC2)c(C)c(-c2ccc(Cl)cc2)c1[C@H](OC(C)(C)C)C(=O)O` [compound 1142], the EC50 rises from 4.5 nM to 7.9 nM (1.8-fold). The first is the more potent here.

Compared with `Cc1nc(-c2ccc(OC(F)(F)F)cc2)c(C)c(-c2ccc(Cl)cc2)c1[C@H](OC(C)(C)C)C(=O)O` [compound 1132], `Cc1nc(C(=O)Nc2ccc(C(F)(F)F)nc2)c(C)c(-c2ccc(Cl)cc2)c1[C@H](OC(C)(C)C)C(=O)O` [compound 1280] is 2.3-fold higher in EC50: 9.4 nM for the first, 22 nM for the second. The first is the more potent here.

`Cc1nc(C(=O)NC(C)(C)C)c(C)c(-c2ccc(Cl)cc2)c1[C@H](OC(C)(C)C)C(=O)O` [compound 1143] and `Cc1nc(NC(=O)C(C)(C)C)c(C)c(-c2ccc(Cl)cc2)c1[C@H](OC(C)(C)C)C(=O)O` [compound 1202] are within 1.5-fold of each other in EC50: 21 nM for the first, 31 nM for the second.

Compared with `Cc1nc(C(=O)NC2Cc3ccccc3C2)c(C)c(-c2ccc(Cl)cc2)c1[C@H](OC(C)(C)C)C(=O)O` [compound 1145], `Cc1nc(C(=O)NCCc2ccccc2)c(C)c(-c2ccc(Cl)cc2)c1[C@H](OC(C)(C)C)C(=O)O` [compound 1146] is 2.1-fold lower in EC50: 35 nM for the first, 17 nM for the second.

Compared with `Cc1nc(C(=O)NC2CCCCCC2)c(C)c(-c2ccc(Cl)cc2)c1[C@H](OC(C)(C)C)C(=O)O` [compound 1147], `Cc1nc(C(=O)N[C@@H](C)C2CCCCC2)c(C)c(-c2ccc(Cl)cc2)c1[C@H](OC(C)(C)C)C(=O)O` [compound 1152] is 2.2-fold higher in EC50: 6.9 nM for the first, 15 nM for the second. The first is the more potent here.

Going from `Cc1nc(C(=O)NC(C)(C)c2ccccc2)c(C)c(-c2ccc(Cl)cc2)c1[C@H](OC(C)(C)C)C(=O)O` [compound 1154] to `Cc1ccc(NC(=O)c2nc(C)c([C@H](OC(C)(C)C)C(=O)O)c(-c3ccc(Cl)cc3)c2C)cc1` [compound 1167], the EC50 falls from 27 nM to 9.3 nM (2.9-fold). The second is the more potent here.

`CC[C@@H](C)NC(=O)c1nc(C)c([C@H](OC(C)(C)C)C(=O)O)c(-c2ccc(Cl)cc2)c1C` [compound 1160] and `Cc1nc(C(=O)NCC2CCC2)c(C)c(-c2ccc(Cl)cc2)c1[C@H](OC(C)(C)C)C(=O)O` [compound 1307] are within 1.5-fold of each other in EC50: 16 nM for the first, 17 nM for the second.

Compared with `Cc1nc(C(=O)NC2CCC(C(C)(C)C)CC2)c(C)c(-c2ccc(Cl)cc2)c1[C@H](OC(C)(C)C)C(=O)O` (stereo partly drawn) [compound 1161], `Cc1nc(C(=O)NC2CCC3(CC2)CC3)c(C)c(-c2ccc(Cl)cc2)c1[C@H](OC(C)(C)C)C(=O)O` [compound 1444] is 2.9-fold lower in EC50: 27 nM for the first, 9.2 nM for the second. The second is the more potent here.

`Cc1nc(C(=O)NC2CCCCCC2)c(C)c(-c2ccc3c(c2C)NCCO3)c1[C@H](OC(C)(C)C)C(=O)O` [compound 1192] and `Cc1nc(C(=O)NCC2CCCC2)c(C)c(-c2ccc3c(c2Cl)NCCO3)c1[C@H](OC(C)(C)C)C(=O)O` [compound 1256] are within 1.5-fold of each other in EC50: 8.3 nM for the first, 8.1 nM for the second.

Going from `Cc1nc(C(=O)NCC2CCCC2)c(C)c(-c2ccc(Cl)cc2)c1[C@H](OC(C)(C)C)C(=O)O` [compound 1208] to `Cc1nc(C(=O)NCC2CCCC2)c(C)c(-c2ccc3c(c2)NCCO3)c1[C@H](OC(C)(C)C)C(=O)O` [compound 1293], the EC50 rises from 8.9 nM to 24 nM (2.7-fold).

Compared with `Cc1nc(C(=O)Nc2ccc3ncccc3c2)c(C)c(-c2ccc(Cl)cc2)c1[C@H](OC(C)(C)C)C(=O)O` [compound 1275], `Cc1nc2ccc(NC(=O)c3nc(C)c([C@H](OC(C)(C)C)C(=O)O)c(-c4ccc(Cl)cc4)c3C)cc2s1` [compound 1311] is 5.8-fold higher in EC50: 4.5 nM for the first, 26 nM for the second. The first is the more potent here.

`Cc1nc(C(=O)Nc2nc3c(s2)CCC3)c(C)c(-c2ccc(Cl)cc2)c1[C@H](OC(C)(C)C)C(=O)O` [compound 1276] and `Cc1nc(C(=O)Nc2nnc(C3CC3)s2)c(C)c(-c2ccc(Cl)cc2)c1[C@H](OC(C)(C)C)C(=O)O` [compound 1316] are within 1.5-fold of each other in EC50: 68 nM for the first, 47 nM for the second.

First: Cc1nc(C(=O)Nc2ccc(C(N)=O)nc2)c(C)c(-c2ccc(Cl)cc2)c1[C@H](OC(C)(C)C)C(=O)O [compound 1283]
Second: Cc1nc(C(=O)NCc2ccnc3ccccc23)c(C)c(-c2ccc(Cl)cc2)c1[C@H](OC(C)(C)C)C(=O)O [compound 1442]
The EC50 of the first is 8.8-fold higher: 140 nM for the first, 16 nM for the second. The second is the more potent here.

Compared with `Cc1nc(C(=O)Nc2ccc(F)cn2)c(C)c(-c2ccc3c(c2)NCCO3)c1[C@H](OC(C)(C)C)C(=O)O` [compound 1290], `Cc1nc(-c2cn3cc(Cl)ccc3n2)c(C)c(-c2ccc(Cl)cc2)c1[C@H](OC(C)(C)C)C(=O)O` [compound 1438] is 12-fold lower in EC50: 11 nM for the first, 0.94 nM for the second.

`COc1ccc2nc(-c3nc(C)c([C@H](OC(C)(C)C)C(=O)O)c(-c4ccc(Cl)cc4)c3C)n(C)c2c1` [compound 1439] and `COc1cc2nc(-c3nc(C)c([C@H](OC(C)(C)C)C(=O)O)c(-c4ccc(Cl)cc4)c3C)n(C)c2cc1Cl` [compound 1441] are within 1.5-fold of each other in EC50: 4 nM for the first, 4.9 nM for the second.

`CCn1c(-c2nc(C)c([C@H](OC(C)(C)C)C(=O)O)c(-c3ccc(Cl)cc3)c2C)nc2ccccc21` [compound 1440] and `Cc1nc(-c2nc3ccccc3n2CC2CC2)c(C)c(-c2ccc(Cl)cc2)c1[C@H](OC(C)(C)C)C(=O)O` [compound 1449] are within 1.5-fold of each other in EC50: 2.4 nM for the first, 1.8 nM for the second.

Compared with `[2H]C1([2H])C([2H])([2H])C([2H])([2H])C([2H])(NC(=O)c2nc(C)c([C@H](OC(C)(C)C)C(=O)O)c(-c3ccc(Cl)cc3)c2C)C([2H])([2H])C1([2H])[2H]` [compound 1443], `Cc1nc(-c2nc3ccc(Cl)cc3[nH]2)c(C)c(-c2ccc(Br)cc2)c1[C@H](OC(C)(C)C)C(=O)O` [compound 1447] is 19-fold lower in EC50: 7.1 nM for the first, 0.38 nM for the second.

`Cc1nc(-c2nc3cc(Cl)ccc3[nH]2)c(C)c(-c2ccc(Cl)cc2F)c1[C@H](OC(C)(C)C)C(=O)O` [compound 1445] and `Cc1nc(-c2nc3cc(Cl)ccc3[nH]2)c(C)c(-c2ccccc2Cl)c1[C@H](OC(C)(C)C)C(=O)O` [compound 1446] are the same in EC50: 1.9 nM for the first, 1.9 nM for the second.

With `Cc1nc(-c2nc3ccccc3n2C)c(C)c(-c2ccc(Br)cc2)c1[C@H](OC(C)(C)C)C(=O)O` [compound 1448] the EC50 was 1.4 nM.
